Results as given in ChEMBL document CHEMBL1201862, “PubChem BioAssay data set” (2004).
Calls of active or inactive are those of the source.

Assays:
[1] = biological target: T1, Microphthalmia-associated transcription factor (Homo sapiens, UniProt O75030); test: reducers of TRPM1 reporter luminescence, concentration series – cell-based, SK-MEL-5, cherry-picked, set 3, MITF inhibitor project, dose response (AID 493073); format: functional;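 note: SK-MEL-5 melanoma cells with luciferase driven by the MITF target TRPM1 promoter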
T1 sequence (O75030 whole entry): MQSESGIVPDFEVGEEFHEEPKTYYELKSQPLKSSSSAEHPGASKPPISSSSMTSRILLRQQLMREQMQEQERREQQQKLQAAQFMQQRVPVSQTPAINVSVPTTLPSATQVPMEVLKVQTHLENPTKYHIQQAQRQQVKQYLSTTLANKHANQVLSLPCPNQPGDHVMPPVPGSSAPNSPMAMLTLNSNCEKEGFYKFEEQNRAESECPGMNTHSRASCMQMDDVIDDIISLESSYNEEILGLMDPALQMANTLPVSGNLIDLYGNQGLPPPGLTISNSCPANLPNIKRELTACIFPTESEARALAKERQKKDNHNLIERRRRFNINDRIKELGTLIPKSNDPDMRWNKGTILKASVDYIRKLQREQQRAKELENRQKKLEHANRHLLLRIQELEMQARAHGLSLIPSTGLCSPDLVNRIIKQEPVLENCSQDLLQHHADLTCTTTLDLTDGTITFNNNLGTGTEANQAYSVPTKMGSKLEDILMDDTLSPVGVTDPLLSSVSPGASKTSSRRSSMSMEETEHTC

[2] = biological target: T2, Heat shock factor protein 1 (Mus musculus, UniProt P38532); test: decrease of HSF1-responsive luciferase luminescence – cell-based, NIH3T3, dose retest, confirmation (AID 2382); format: functional;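 note: NIH3T3 fibroblasts with HSF1-driven luciferase reporter stressed by proteasome inhibitor MG132; luminescence from HSF1-driven luciferase expression after 8 hours of MG132 stress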
T2 sequence (P38532 whole entry): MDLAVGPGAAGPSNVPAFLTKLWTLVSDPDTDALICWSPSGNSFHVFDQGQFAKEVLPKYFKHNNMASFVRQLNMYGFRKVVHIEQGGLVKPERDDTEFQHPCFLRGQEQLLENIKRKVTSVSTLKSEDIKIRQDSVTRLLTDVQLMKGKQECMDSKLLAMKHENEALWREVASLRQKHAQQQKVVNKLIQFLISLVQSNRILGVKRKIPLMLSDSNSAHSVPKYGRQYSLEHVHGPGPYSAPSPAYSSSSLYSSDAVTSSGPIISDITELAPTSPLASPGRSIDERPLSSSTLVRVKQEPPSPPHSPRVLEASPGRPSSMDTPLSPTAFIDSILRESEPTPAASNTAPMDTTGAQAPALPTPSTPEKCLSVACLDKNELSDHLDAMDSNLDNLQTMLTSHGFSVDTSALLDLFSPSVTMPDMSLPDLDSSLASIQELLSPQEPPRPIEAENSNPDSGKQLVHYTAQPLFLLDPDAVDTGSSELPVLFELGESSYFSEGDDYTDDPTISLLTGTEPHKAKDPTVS

[3] = biological target: Palmitoyl-protein thioesterase ABHD10, mitochondrial (Mus musculus, UniProt Q6PE15); test: Late stage assay provider results from the probe development effort to identify inhibitors of PME-1: fluorescence-based dose response biochemical gel-based competitive Activity-Based Protein Profiling (ABPP) inhibition of ABHD10 Set 1.; format: functional
[4] = biological target: T3, Nuclear receptor subfamily 0 group B member 1 (Homo sapiens, UniProt P51843); format: functional, cell-based;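 note: HEK293T cells transfected with SF-1 and DAX-1 plus StAR promoter luciferase reporter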
T3 sequence (P51843 whole entry): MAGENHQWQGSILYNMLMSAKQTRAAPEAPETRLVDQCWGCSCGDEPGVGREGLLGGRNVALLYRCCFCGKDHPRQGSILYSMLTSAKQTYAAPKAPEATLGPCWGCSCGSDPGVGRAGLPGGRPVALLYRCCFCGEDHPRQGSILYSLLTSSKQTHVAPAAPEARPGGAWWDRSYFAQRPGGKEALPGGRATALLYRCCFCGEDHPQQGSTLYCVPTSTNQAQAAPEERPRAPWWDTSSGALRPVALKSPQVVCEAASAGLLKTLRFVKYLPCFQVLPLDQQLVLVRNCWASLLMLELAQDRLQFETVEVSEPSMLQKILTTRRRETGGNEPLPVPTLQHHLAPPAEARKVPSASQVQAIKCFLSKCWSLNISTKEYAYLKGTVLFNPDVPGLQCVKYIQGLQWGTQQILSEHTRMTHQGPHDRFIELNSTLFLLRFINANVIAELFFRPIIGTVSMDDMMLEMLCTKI

HeLa = test: ATP-based viability loss in HeLa cells – cell-based, CellTiter-Glo luminescence, cherry-pick samples, cytotoxicity control for MITF activator project, dose response (AID 540259); format: functional; conditions: Homo sapiens
[5] = biological target: T4, Long-chain-fatty-acid--AMP ligase FadD28 (Mycobacterium tuberculosis, UniProt P9WQ59); test: Fluorescence polarization aasay to screen for inhibitors that compete for the binding of FadD28 to a bisubstrate Measured in Biochemical System Using Plate Reader - 2147-01_Inhibitor_Dose_CherryPick_Activity.; format: functional, Mycobacterium tuberculosis H37Rv
T4 sequence (P9WQ59 whole entry): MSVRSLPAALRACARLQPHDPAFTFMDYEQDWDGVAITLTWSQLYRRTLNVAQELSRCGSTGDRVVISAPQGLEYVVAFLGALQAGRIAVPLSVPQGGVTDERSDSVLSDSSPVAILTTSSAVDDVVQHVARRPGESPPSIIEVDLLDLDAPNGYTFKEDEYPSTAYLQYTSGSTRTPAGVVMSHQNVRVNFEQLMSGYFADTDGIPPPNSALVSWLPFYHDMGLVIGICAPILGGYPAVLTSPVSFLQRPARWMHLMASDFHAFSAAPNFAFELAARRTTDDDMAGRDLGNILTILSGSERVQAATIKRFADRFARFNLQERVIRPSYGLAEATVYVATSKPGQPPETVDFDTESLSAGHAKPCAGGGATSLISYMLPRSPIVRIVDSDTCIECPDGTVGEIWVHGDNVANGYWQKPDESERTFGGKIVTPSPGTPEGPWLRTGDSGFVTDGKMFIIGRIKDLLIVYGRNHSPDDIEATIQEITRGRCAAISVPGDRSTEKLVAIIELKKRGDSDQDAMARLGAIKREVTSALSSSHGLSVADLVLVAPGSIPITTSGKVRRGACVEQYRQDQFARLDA

[6] = biological target: SWI/SNF-related matrix-associated actin-dependent regulator of chromatin subfamily A member 2 (Homo sapiens, UniProt P51531); test: Luminescence-based cell-based high throughput dose response assay to identify activators of the function of SWI/SNF related, matrix associated, actin dependent regulator of chromatin, subfamily a, member 2 (SMARCA2, BRM).; format: functional
cells = format: functional, cell-based
[7] = Counterscreen for activators of the function of SWI/SNF related, matrix associated, actin dependent regulator of chromatin, subfamily a, member 2 (SMARCA2, BRM): Luminescence-based cell-based high throughput dose response assay to identify non-selective compounds using the VP16 reporter assay.; format: functional
[8] = Counterscreen for inhibitors of Trypanosoma brucei methionyl tRNA synthetase (MetRS): Luminescence-based cell-based high throughput dose response assay to identify compounds that are cytotoxic to Jurkat human T lymphocyte cells.; format: functional
[9] = biological target: Induced myeloid leukemia cell differentiation protein Mcl-1 (Homo sapiens, UniProt Q07820); format: functional
[10] = biological target: T5, Methionyl-tRNA synthetase, putative (Trypanosoma brucei brucei, UniProt Q38C91); format: functional, Trypanosoma brucei brucei strain 927/4 GUTat10.1
[11] = biological target: T5, Methionyl-tRNA synthetase, putative; format: functional, Trypanosoma brucei brucei strain 927/4 GUTat10.1; remark: listed apart in the source
Vero = test: viability loss in Vero cells – cell-based, plate reader, cherry-pick samples, cytotoxicity control, dose response (AID 687020); format: functional; conditions: Chlorocebus sabaeus
[12] = biological target: T6, Botulinum neurotoxin type F (Clostridium botulinum, UniProt P30996); test: High-throughput multiplex microsphere dose response for inhibitors of toxin protease, specifically Botulinum neurotoxin light chain F protease, compounds from Cherry Pick 02.; format: functional; conditions: read-out: EC50_MICROM
[13] = biological target: T6, Botulinum neurotoxin type F; test: High-throughput multiplex microsphere dose response for inhibitors of toxin protease, specifically Botulinum neurotoxin light chain F protease, compounds from Cherry Pick 01.; format: functional; conditions: read-out: EC50_MICROM

T6 sequence (P30996 1-436 limits assumed): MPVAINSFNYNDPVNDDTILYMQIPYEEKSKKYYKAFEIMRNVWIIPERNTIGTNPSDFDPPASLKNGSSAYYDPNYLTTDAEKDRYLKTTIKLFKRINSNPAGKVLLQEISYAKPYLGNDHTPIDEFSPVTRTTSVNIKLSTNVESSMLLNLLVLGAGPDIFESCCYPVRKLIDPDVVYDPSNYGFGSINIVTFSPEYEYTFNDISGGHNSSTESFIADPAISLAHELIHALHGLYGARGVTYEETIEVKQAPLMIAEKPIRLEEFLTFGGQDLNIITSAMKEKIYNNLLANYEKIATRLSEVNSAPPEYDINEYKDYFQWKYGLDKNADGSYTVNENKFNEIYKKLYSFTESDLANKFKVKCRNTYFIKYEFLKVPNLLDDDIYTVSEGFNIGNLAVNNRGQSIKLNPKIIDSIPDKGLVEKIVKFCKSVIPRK
T5 sequence (Q38C91 whole entry): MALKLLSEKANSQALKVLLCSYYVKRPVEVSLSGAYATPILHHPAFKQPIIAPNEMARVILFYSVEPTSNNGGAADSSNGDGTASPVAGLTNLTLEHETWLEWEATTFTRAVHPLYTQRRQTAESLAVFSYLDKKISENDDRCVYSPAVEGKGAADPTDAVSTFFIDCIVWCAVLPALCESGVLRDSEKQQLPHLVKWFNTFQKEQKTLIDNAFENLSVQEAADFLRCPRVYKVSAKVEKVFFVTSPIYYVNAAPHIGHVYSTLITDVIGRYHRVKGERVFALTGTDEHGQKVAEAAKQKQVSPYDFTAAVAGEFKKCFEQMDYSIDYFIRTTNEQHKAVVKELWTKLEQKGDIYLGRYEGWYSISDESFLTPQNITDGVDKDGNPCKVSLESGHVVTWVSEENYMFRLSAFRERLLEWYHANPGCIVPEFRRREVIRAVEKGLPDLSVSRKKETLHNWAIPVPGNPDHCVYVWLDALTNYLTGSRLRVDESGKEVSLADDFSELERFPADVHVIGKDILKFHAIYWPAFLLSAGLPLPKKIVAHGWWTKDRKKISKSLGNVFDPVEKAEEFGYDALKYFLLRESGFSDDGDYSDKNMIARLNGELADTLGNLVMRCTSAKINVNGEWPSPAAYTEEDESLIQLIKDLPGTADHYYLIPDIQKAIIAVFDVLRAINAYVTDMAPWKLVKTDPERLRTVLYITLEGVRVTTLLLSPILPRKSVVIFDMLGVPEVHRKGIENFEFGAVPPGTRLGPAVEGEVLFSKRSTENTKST
Chain of Induced myeloid leukemia cell differentiation protein Mcl-1 (Q07820 whole entry): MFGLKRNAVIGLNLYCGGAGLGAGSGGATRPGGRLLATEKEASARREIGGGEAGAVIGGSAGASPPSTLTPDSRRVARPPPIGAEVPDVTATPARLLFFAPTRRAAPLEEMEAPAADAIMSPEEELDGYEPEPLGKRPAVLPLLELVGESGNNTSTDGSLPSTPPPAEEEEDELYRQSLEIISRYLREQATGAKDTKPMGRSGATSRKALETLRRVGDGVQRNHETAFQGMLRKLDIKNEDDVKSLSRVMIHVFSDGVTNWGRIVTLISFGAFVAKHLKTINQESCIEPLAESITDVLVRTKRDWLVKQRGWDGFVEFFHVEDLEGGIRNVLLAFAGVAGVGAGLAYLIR
Chain of SWI/SNF-related matrix-associated actin-dependent regulator of chromatin subfamily A member 2 (P51531 whole entry): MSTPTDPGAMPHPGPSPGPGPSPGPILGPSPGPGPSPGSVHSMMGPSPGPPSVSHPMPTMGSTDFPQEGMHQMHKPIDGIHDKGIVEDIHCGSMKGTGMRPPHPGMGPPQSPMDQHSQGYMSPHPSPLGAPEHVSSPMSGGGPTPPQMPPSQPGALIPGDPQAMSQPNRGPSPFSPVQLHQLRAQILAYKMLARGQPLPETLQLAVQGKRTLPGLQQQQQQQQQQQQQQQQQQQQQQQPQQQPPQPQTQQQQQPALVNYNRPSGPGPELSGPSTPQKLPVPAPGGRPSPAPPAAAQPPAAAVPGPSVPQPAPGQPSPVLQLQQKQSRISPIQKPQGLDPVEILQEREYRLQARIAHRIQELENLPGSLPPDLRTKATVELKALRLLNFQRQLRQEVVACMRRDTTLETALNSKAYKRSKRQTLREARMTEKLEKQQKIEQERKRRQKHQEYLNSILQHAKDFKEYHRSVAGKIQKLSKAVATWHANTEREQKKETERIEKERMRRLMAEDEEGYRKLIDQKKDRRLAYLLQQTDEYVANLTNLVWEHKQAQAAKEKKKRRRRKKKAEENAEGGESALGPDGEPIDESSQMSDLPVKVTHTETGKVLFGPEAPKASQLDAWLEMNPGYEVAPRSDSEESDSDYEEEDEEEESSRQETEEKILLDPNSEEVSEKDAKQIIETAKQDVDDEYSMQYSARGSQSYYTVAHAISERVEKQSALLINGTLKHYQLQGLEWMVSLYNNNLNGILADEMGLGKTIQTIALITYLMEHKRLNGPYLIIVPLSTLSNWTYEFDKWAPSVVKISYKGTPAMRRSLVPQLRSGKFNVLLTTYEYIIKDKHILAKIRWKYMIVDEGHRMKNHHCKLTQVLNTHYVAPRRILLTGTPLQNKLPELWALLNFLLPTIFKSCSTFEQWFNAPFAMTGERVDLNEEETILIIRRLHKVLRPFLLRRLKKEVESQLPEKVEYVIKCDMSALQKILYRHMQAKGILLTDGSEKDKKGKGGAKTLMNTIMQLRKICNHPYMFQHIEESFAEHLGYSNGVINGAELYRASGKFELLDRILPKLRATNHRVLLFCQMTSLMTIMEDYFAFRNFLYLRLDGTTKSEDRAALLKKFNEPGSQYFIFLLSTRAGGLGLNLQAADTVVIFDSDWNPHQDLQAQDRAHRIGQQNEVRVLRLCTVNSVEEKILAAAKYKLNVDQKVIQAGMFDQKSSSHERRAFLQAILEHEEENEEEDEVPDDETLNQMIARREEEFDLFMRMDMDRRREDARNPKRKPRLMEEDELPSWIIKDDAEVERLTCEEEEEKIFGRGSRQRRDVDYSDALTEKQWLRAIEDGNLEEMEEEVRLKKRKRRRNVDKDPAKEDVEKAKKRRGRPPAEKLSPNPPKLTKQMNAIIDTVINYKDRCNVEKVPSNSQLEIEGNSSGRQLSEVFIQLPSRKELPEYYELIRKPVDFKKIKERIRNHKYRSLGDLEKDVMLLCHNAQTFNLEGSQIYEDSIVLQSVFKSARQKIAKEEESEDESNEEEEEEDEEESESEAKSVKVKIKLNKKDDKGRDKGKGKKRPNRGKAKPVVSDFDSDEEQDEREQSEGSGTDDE
Chain of Palmitoyl-protein thioesterase ABHD10, mitochondrial (Q6PE15 whole entry): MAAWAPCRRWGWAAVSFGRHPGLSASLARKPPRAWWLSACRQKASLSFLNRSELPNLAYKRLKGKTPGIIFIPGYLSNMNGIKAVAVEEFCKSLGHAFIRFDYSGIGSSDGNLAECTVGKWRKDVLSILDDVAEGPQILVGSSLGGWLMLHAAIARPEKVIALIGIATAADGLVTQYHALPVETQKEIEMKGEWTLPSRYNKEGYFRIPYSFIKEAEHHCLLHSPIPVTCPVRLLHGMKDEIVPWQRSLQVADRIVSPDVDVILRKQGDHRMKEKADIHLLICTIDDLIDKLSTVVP

SMILES: CCOC(=O)N1C(=O)[C@@](CC)(c2ccccc2)N1C(=O)OCC
- AC50 [1]: 12.5 µM (active)
- EC50 [2]: > 195 µM (not active)
- IC50 [3]: 0.173 µM (active)

SMILES: CCc1cccc2c(C(=O)CN3C(=O)NC4(CCCCCC4)C3=O)c[nH]c12
- IC50 [4]: > 67.6 µM (inactive)
- AC50 (HeLa): 99.7 µM (active)
- AC50 [5]: 4.33 µM (active)
- EC50 [6]: > 91.2 µM (inactive)
- IC50 (cells): > 67.6 µM (inactive)
- EC50 [7]: > 91.2 µM (inactive)

SMILES: COc1ccc(N2CCC(CNC(=O)Nc3ccc(Cl)cc3)C2)cc1 (stereo unspecified)
- IC50 [8]: 83.3 µM (inactive)
- IC50 [9]: > 54 µM (not active)
- IC50 [10]: 38.4 µM (inactive)
- IC50 [11]: 27.3 µM (inactive)

SMILES: Cc1cccc(N(C(=O)Cn2nnc3ccccc32)C(C(=O)NC(C)(C)C)c2ccsc2)c1 (stereo unspecified)
- AC50 (Vero): 31.3 µM (active)

SMILES: O=C(Nc1cnc(O)nc1O)c1cc([N+](=O)[O-])cc([N+](=O)[O-])c1
- EC50 [12]: 2.7 µM (active)
- EC50 [13]: 3.9 µM (active)
